# Data as given in patent publication US20170172963A1, “COMPOSITIONS AND METHODS FOR THE PREVENTION AND OR TREATMENT OF SCHISTOSOMIASIS” (DSM IP ASSETS B.V., priority 2014, published 2017).
# Where “and” joins values, the source holds several entries; their conditions need not be identical. Identical values can stand only once.
# Experiments:
# Type in all cases: in vivo, human
# Schistosoma mansoni [1] = test: Example 1: stool egg counts (Kato-Katz, epg) and cure rate in infected school children, Menoufiya; conditions: for % cure rate: children with 0 epg after week 9
# Description: Approximately 2000 school children in villages of three districts in the Menoufiya governorate located about 100 km north of Cairo, Egypt were screened. Two microscopic slides of stool samples were examined for each child on 3 consecutive days by the Kato-Katz method and egg counts per gram (epg) were recorded. 66 children, 44 males and 22 females, 6-15 years old (mean±SD=11.7±1.6), with weight range of 25-52 kg (mean±SD=37.8±8.6), and epg of 24-384 were selected as test subjects. 20 sex, age, and social conditions-matched, parasite-free children were used as controls.
# The 66 children were divided randomly into three groups whereby the first group of 20 children were given a single oral dose of Praziquantel (PZQ) (40 mg/kg body weight) on the first day of treatment and a placebo was given for the next three weeks (5 doses/week) (“PZQ-Placebo Treatment”). The PZQ was Distocide (Epico, El-Asher-Men-Ramadan City, Egypt). The placebo was 1 g VegCap, containing corn-soy (DSM Nutritional Products, Columbia, Md.). The second group of 23 children received ARA (10 mg/kg body weight/day) for 15 days over three weeks (5 days/week) (“ARA Treatment”) The ARA was 1 g VegCap (DSM) containing approximately 395 mg ARA/capsule. The third group of 23 children were given Praziquantel (40 mg/kg body weight) in the first day of treatment and then received 15 doses of ARA (10 mg/kg/day; 5 doses/week) (“PZQ+ARA Treatment”).
# (§1) Approximately 10 ml blood were obtained from each child 2-3 days before the start of the treatment and 3 days after the end of the ARA (or ARA+PZQ) treatment, corresponding to 18 days after PZQ-only treatment. Stool samples were obtained from each child on 3 consecutive days 1 week after the end of the ARA treatment (corresponding to 4 weeks after the PZQ-only treatment) and 6 weeks after the end of the ARA treatment (corresponding to 9 weeks after the PZQ-only treatment). Epg was assessed on each stool sample.
# (§2) Subjects having initial baseline epg counts <100 were classified as having low infection. Subjects having initial baseline epg counts >100 but <400 were classified as having moderate infection. Subjects having initial baseline epg counts >400 were classified as having high infection.
# Schistosoma mansoni [2] = test: Example 2: stool egg counts (epg) and cure rate in infected school children, El Kafr Sheikh; parameters: % epg reduction: concentration or dose not given beside the values
# Description: School children from El Kafr Sheikh were screened similar to those school children in Example 1 above.
# (§3) The children were divided randomly into three groups whereby the first group of children were given a single oral dose of Praziquantel (PZQ) (40 mg/kg body weight) on the first day of treatment and a placebo was given for the next three weeks (5 doses/week) (“PZQ-Placebo Treatment”). The PZQ was Distocide (Epico, El-Asher-Men-Ramadan City, Egypt). The placebo was 1 g VegCap, containing corn-soy (DSM Nutritional Products, Columbia, Md.). The second group of children received ARA (10 mg/kg body weight/day) for 15 days over three weeks (5 days/week) (“ARA Treatment”). The ARA was 1 g VegCap (DSM) containing approximately 395 mg ARA/capsule. The third group of children were given Praziquantel (40 mg/kg body weight) in the first day of treatment and then received 15 doses of ARA (10 mg/kg/day; 5 doses/week) (“PZQ-ARA Treatment”).
# as §1, §2
# IL-10 = test: Example 2: plasma IL-10 level by capture ELISA after treatment; conditions: for Median IL-10 after treatment / % reduction in IL-10 levels: plasma; for Median IL-10 after treatment: 3 days after end of ARA treatment (18 days after PZQ); for % reduction in IL-10 levels: after treatment vs baseline
# Description: as §3, §1
# (§4) Plasma was retrieved from heparinized blood following centrifugation at 400 g for 20 minutes and stored at −76° C. until assayed by capture enzyme-linked immunosorbent assay (ELISA) for levels of IL-10 and IFN-γ (ELISA MAX™ Set, BioLegend, San Diego, Calif.) according to the manufacturer's protocol.
# IFN-γ = test: Example 2: plasma IFN-γ level by capture ELISA after treatment; conditions: for Median IFN-γ after treatment / % reduction in IFN-γ levels: plasma; for Median IFN-γ after treatment: 3 days after end of ARA treatment (18 days after PZQ); for % reduction in IFN-γ levels: after treatment vs baseline
# Description: as §3, §1, §4
# [3] = low infection (baseline epg < 100)
# [4] = moderate and high infection (baseline epg > 100)
# [5] = initial baseline epg < 100, mean epg 6 weeks after treatment vs mean baseline epg
# [6] = initial baseline epg > 100 and < 400, mean epg 6 weeks after treatment vs mean baseline epg
# [7] = initial baseline epg > 400, mean epg 6 weeks after treatment vs mean baseline epg
# [8] = low infection, initial baseline epg < 100
# [9] = moderate infection, initial baseline epg > 100 and < 400
Compound,% cure rate (Schistosoma mansoni [1]; [3]) [%],% cure rate (Schistosoma mansoni [1]; [4]) [%],% epg reduction (Schistosoma mansoni [2]; [5]) [%],% epg reduction (Schistosoma mansoni [2]; [6]) [%],% epg reduction (Schistosoma mansoni [2]; [7]) [%],% cured (Schistosoma mansoni [2]; [8]),% cured (Schistosoma mansoni [2]; [9]),Median IL-10 after treatment (IL-10) [pg/mL],% reduction in IL-10 levels (IL-10) [%],Median IFN-γ after treatment (IFN-γ) [pg/mL],% reduction in IFN-γ levels (IFN-γ) [%],other results
"CCCCC/C=C\C/C=C\C/C=C\C/C=C\CCCC(=O)O [ARA, all-cis 5,8,11,14-eicosatetreanoic acid]",77,50,−2.6,49,65,50% and 50 (22/43) %,49% and 28 (4/19) %,40,50,25,70,"epg After Week 4 (Schistosoma mansoni [1]; individual subjects with initial baseline epg < 100, stool 4 weeks after PZQ / 1 week after end of ARA): 12 epg and 0 epg (4×) and 144 epg and 24 epg (2×) and 20 epg and 52 epg and 48 epg and 19 epg; epg After Week 9 (Schistosoma mansoni [1]; individual subjects with initial baseline epg < 100, stool 9 weeks after PZQ / 6 weeks after end of ARA): 0 epg (10×) and 376 epg and 20 epg and 42 epg; epg After Week 4 (Schistosoma mansoni [1]; individual subjects with initial baseline epg > 100, stool 4 weeks after PZQ / 1 week after end of ARA): 240 epg and 96 epg (3×) and 749 epg and 216 epg and 84 epg and 0 epg and 48 epg and 60 epg; epg After Week 9 (Schistosoma mansoni [1]; individual subjects with initial baseline epg > 100, stool 9 weeks after PZQ / 6 weeks after end of ARA): 0 epg (5×) and 108 epg and 48 epg and 28 epg and 20 epg and 152 epg; levels of circulating IL-10 (result in words) (IL-10; after treatment): more effective; levels of circulating IFN-γ (result in words) (IFN-γ; after treatment): more effective"
"O=C(C1CCCCC1)N1CC(=O)N2CCc3ccccc3C2C1 (stereo not drawn) [PZQ, 2-(Cyclohexylcarbonyl)-1,2,3,6,7,11b-hexahydro-4H-pyrazino[2,1-a] isoquinolin-4-one, reference compound]",71,67,50,70,81,57 (20/35) %,43 (10/23) %,36,42,32.5,60,"epg After Week 4 (Schistosoma mansoni [1]; individual subjects with initial baseline epg < 100, stool 4 weeks after PZQ / 1 week after end of ARA, listed as PZQ-Placebo): 8 epg and 0 epg (9×) and 5 epg (2×); epg After Week 9 (Schistosoma mansoni [1]; individual subjects with initial baseline epg < 100, stool 9 weeks after PZQ / 6 weeks after end of ARA, listed as PZQ-Placebo): 10 epg and 4 epg and 0 epg (10×) and 6 epg and 20 epg; epg After Week 4 (Schistosoma mansoni [1]; individual subjects with initial baseline epg > 100, stool 4 weeks after PZQ / 1 week after end of ARA, listed as PZQ- Placebo): 0 epg (3×) and 16 epg; epg After Week 9 (Schistosoma mansoni [1]; individual subjects with initial baseline epg > 100, stool 9 weeks after PZQ / 6 weeks after end of ARA, listed as PZQ- Placebo): 0 epg (4×) and 10 epg and 30 epg; % cured (Schistosoma mansoni [2]; high infection, initial baseline epg > 400): 30 (8/26) %; % cured (Schistosoma mansoni [2]; high infection, initial baseline epg > 400, listed as PZQ-Placebo): 81%; % cured (Schistosoma mansoni [2]; low infection, initial baseline epg < 100, listed as PZQ-Placebo): 57%; % cured (Schistosoma mansoni [2]; moderate infection, initial baseline epg > 100 and < 400, listed as PZQ-Placebo): 70%"
